Experimental data reported in the supplement of paper PMC10307832.

Key:
Experiment in all cases: relative viability (nuclei count vs DMSO), 5 days (fraction); higher = more cells survive
[1] = compound: CS(=O)(=O)c1ccc(-c2cnc(N)c(C(=O)Nc3ccccc3)n2)cc1 [VE-821] + CCNC(=O)c1noc(-c2cc(C(C)C)c(O)cc2O)c1-c1ccc(CN2CCOCC2)cc1 [Luminespib] (partner 0.01 µM)
How it was run: (§1)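 Values are medians from duplicate plates. Each reflects relative viability, defined as the nuclei count of treated wells over that of vehicle wells. Lung cancer cell lines in 1536-well plates were pin-tool dosed one day after seeding with one drug alone or with a fixed anchor-drug dose plus five library-drug doses (not always all listed) in √10 steps, then fixed, stained and imaged at 4× after 5 days.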

[2] = compound: CS(=O)(=O)c1ccc(-c2cnc(N)c(C(=O)Nc3ccccc3)n2)cc1 [VE-821] + CS(=O)(=O)CCNCc1ccc(-c2ccc3ncnc(Nc4ccc(OCc5cccc(F)c5)c(Cl)c4)c3c2)o1 [Lapatinib] (partner 2 µM)
How it was run: as §1

[3] = compound: CS(=O)(=O)c1ccc(C(=O)Nc2ccc(Cl)c(-c3ccccn3)c2)c(Cl)c1 [Vismodegib] + CC1(C)CCC(c2ccc(Cl)cc2)=C(CN2CCN(c3ccc(C(=O)NS(=O)(=O)c4ccc(N[C@H](CCN5CCOCC5)CSc5ccccc5)c(S(=O)(=O)C(F)(F)F)c4)cc3)CC2)C1 [Navitoclax] (partner 0.5 µM)
How it was run: as §1

[4] = compound: N#CC[C@H](C1CCCC1)n1cc(-c2ncnc3[nH]ccc23)cn1 [Ruxolitinib] + COc1cccc2cc(-c3nc([C@H]4CC[C@H](C(=O)O)CC4)n4ncnc(N)c34)[nH]c12 [OSI-027] (partner 0.5 µM)
How it was run: as §1

Row | Cell Line | relative viability ([1]; first compound 0.08 µM) | relative viability ([1]; first compound 0.253 µM) | relative viability ([1]; first compound 0.8 µM) | relative viability ([1]; first compound 2.53 µM) | relative viability ([1]; first compound 8 µM) | relative viability ([2]; first compound 0.08 µM) | relative viability ([2]; first compound 0.253 µM) | relative viability ([2]; first compound 0.8 µM) | relative viability ([2]; first compound 2.53 µM) | relative viability ([2]; first compound 8 µM) | relative viability ([3]; first compound 0.08 µM) | relative viability ([3]; first compound 0.253 µM) | relative viability ([3]; first compound 0.8 µM) | relative viability ([3]; first compound 2.53 µM) | relative viability ([3]; first compound 8 µM) | relative viability ([4]; first compound 0.08 µM) | relative viability ([4]; first compound 0.253 µM) | relative viability ([4]; first compound 0.8 µM) | relative viability ([4]; first compound 2.53 µM) | relative viability ([4]; first compound 8 µM)
1 | NCI-H596 | 0.978 | 1.09 | 1 | 1.03 | 0.738 | 1.06 | 0.87 | 1.12 | 1.26 | 1 | 0.95 | 1.01 | 0.848 | 0.882 | 0.904 | 0.826 | 0.699 | 0.841 | 0.69 | 0.758
2 | NCI-H1734 | 0.199 | 0.197 | 0.208 | 0.165 | 0.193 | 1.43 | 1.04 | 1.03 | 1.16 | 0.73 | 0.878 | 0.835 | 0.846 | 0.77 | 0.897 | 0.586 | 0.491 | 0.671 | 0.417 | 0.637
3 | NCI-H1651 | 0.907 | 0.819 | 0.63 | 1.16 | 0.679 | 0.93 | 0.815 | 0.785 | 1.04 | 0.74 | 0.954 | 0.956 | 0.984 | 0.885 | 1.11 | 0.774 | 0.718 | 0.842 | 0.659 | 0.723
4 | NCI-H2170 | 0.754 | 0.623 | 0.769 | 0.585 | 0.555 | 0.289 | 0.278 | 0.256 | 0.272 | 0.272 | 0.683 | 0.602 | 0.755 | 0.473 | 0.617 | 0.659 | 0.68 | 0.713 | 0.567 | 0.667
5 | NCI-H1975 | 0.213 | 0.197 | 0.26 | 0.193 | 0.193 | 0.884 | 0.531 | 0.856 | 0.948 | 0.669 | 1.2 | 1.06 | 1.22 | 1.08 | 1.09 | 0.734 | 0.699 | 0.639 | 0.485 | 0.473
6 | NCI-H1437 | 1.19 | 1.15 | 1.06 | 1.19 | 0.878 | 0.816 | 0.71 | 0.763 | 0.871 | 0.614 | 0.945 | 1.08 | 1.09 | 1.07 | 1.1 | 0.965 | 0.758 | 0.926 | 0.752 | 0.78
7 | HOP-62 | 0.966 | 0.822 | 0.981 | 0.694 | 0.596 | 1.16 | 1.03 | 0.958 | 1.06 | 0.947 | 0.985 | 1.06 | 0.915 | 0.819 | 1.07 | 0.874 | 0.724 | 0.91 | 0.825 | 0.824
8 | NCI-H2405 | 0.758 | 0.735 | 0.437 | 0.712 | 0.594 | 1.15 | 0.976 | 1.03 | 1.31 | 1.05 | – | 0.93 | 0.86 | 0.712 | 0.904 | – | 0.503 | 0.684 | 0.623 | 0.468
9 | SK-MES-1 | 1.09 | 0.797 | 0.746 | 0.537 | 0.306 | 0.483 | 0.467 | 0.437 | 0.446 | 0.397 | 1.23 | 1.22 | 1.23 | 1.15 | 1.17 | 0.676 | 0.587 | 0.702 | 0.534 | 0.512
10 | LC-2-ad | 1.18 | 1.09 | 1.19 | 1.24 | 1 | 1.06 | 1.01 | 1.08 | 1.07 | 0.963 | 0.573 | 0.447 | 0.422 | 0.522 | 0.553 | – | 0.667 | 0.859 | 0.733 | 0.524
11 | NCI-H1944 | 0.835 | 0.698 | 0.421 | 0.803 | 0.416 | 1.09 | 0.811 | 0.748 | 0.935 | 0.386 | 0.994 | 1.05 | 1.04 | 1.02 | 0.999 | 0.398 | 0.38 | 0.368 | 0.374 | 0.408
12 | NCI-H322M | 0.958 | 0.87 | 0.632 | 0.4 | 0.266 | 0.555 | – | 0.654 | 0.627 | 0.508 | 1.19 | 1.3 | 1.14 | 1.23 | 1.07 | 0.506 | 0.538 | 0.704 | 0.594 | 0.63
13 | CAL-12T | 0.655 | 0.363 | 0.4 | 0.327 | 0.137 | 0.656 | 0.7 | 0.637 | 0.839 | 0.456 | 1.21 | 0.965 | 1.33 | 1.23 | 1.24 | 0.598 | 0.623 | 0.812 | 0.524 | 0.442
14 | NCI-H2228 | 0.125 | 0.165 | 0.131 | 0.132 | 0.0911 | 1.18 | 1.23 | 1.14 | 1.04 | 0.37 | 0.838 | 1.1 | 0.932 | 0.741 | 0.901 | 0.629 | 0.419 | 0.743 | 0.446 | 0.289
15 | EKVX | 0.96 | 0.77 | 0.763 | 0.939 | 0.815 | 0.209 | 0.196 | 0.219 | 0.242 | 0.186 | 0.664 | 0.901 | 0.999 | 0.899 | 0.914 | 0.661 | 0.641 | 0.486 | 0.632 | 0.733
16 | HARA | 0.956 | 0.836 | 0.579 | 0.695 | 0.448 | 0.825 | 0.559 | 0.826 | 0.757 | 0.47 | 1.13 | 1.15 | 1.16 | 1.11 | 1.14 | 0.727 | 0.372 | 0.601 | 0.416 | 0.481
